According to patent EP0804408B1, “NOVEL 4-SUBSTITUTED 2,6-DI-TERT-BUTYLPHENOL COMPOUNDS, PHARMACEUTICAL COMPOSITIONS CONTAINING SAME AND PREPARATION METHOD THEREFOR” (priority 1994, dated 1996):
Marks after values point to notes of the source that are not given here.

System: NO-synthase inductible (iNOS)
Assay: iNOS induction test: nitrites in RAW264.7 supernatants by Griess reaction after nitrate reduction
Assay type: cell-based, murins
From the text: Cette hypothèse a été contrôlée en dosant les nitrites dans des surnageants de culture de macrophages murins de lignées activées en présence de AVF1. Les nitrites ont été dosés par la réaction de Griess après réduction de tous le nitrates grâce à la nitrate réductase de Pseudomonas oleoverans (Granger et al., J. Immunol., 1991, 146, 1294-1302). La spécificité de la réaction a été prouvée par l'emploi d'un inhibiteur spécifique de la synthèse du monoxyde d'azote, la N^G-monométhyl-L-arginine (L-NMMA).
Le test d'induction iNOS consiste à ensemencer les macrophages RAW264.7 dans des plaques à 24 puits à raison de 1 x 10^6 sous 1,6 ml. Après 24 heures de culture permettant d'obtenir un tapis cellulaire complet, AVF1, dilué de raison 10 dans des des doses ne donnant pas de toxicité cellulaire (de 10^-6 à 10^-8 %), est ajouté dans 100 µl par cupule soit sur des macrophages sans activateur, avec ou sans l'inhibiteur de iNOS (action directe du produit sur les macrophages) soit en présence des inducteurs, avec ou sans inhibiteur (action du produit sur des macrophages activés).
Après 24 heures de culture, les surnageants sont prélevés, centrifugés 10 minutes à 100 g à température ambiantes pour éliminer les éventuels débris cellulaires puis utilisés pour le dosage des nitrites.
Deux volumes des surnageants clarifiés sont réduits en présence d'un volume d'une suspension de Pseudomonas oleovorans à 100 mg/ml et un volume de D-MEM sans rouge de phénol. Après une incubation de 90 minutes à 37°C sans agitation, les mélanges sont centrifugés 5 minutes à 4 000 g pour éliminer les bactéries et dilués au 1/5 et au 1/10 en eau distillée stérile.
100 µl des échantillons réduits et dilués sont distribués dans des séries de 2 puits dans une plaque ELISA (maxicorp, Nunc.). 200 µl du réactif de Griess (mélange ex-temporané volume à volume des solutions de sulfamide à 1,5 g/100 ml de HCl 1,2 N (87,1 mM) - réactif A - et de naphtylènediamine à 0,15 g/100 ml d'eau stérile (5,78 mM) - réactif B -) sont ajoutés.
Cent autres µl d'échantillon servant de blanc de DO sont distribués et mélangés à 200 µl d'un mélange ex-temporané volume à volume d'eau distillée et du réactif colorimétrique A.
Après 30 minutes à température ambiante à l'obscurité, la densité optique (DO) des échantillons est lue à 540 nm au lecteur de plaque pour ELISA.
• Les contrôles du système d'induction iNOS sont composés de : • . Témoin cellules consistant en des macrophages ne recevant que du milieu de culture. • . Témoin d'induction consistant en des macrophages traités par 100 µl de lipopolysaccharide (LPS à 4 µg/ml, Difco) et par 100 µl d'interféron-γ recombinant (IFN-γ à 1 µU/ml, Boerhinger-Mannheim) afin d'activer la iNOS (Schmidt et al., Mol. Pharmacol., 1992, 41, 614-624). Les solutions mères de LPS et de IFN-γont été conservées respectivement à +4°C et à -20°C avant utilisation. • . Témoin d'inhibition spécifique pour prouver que les nitrites dosés proviennent de l'activation de la iNOS. Il consiste à incorporer à la culture un inhibiteur spécifique, la L-NMMA (N^G-monométhyl-L-arginine, Calbiochem) (Hibbs et al., Science, 1987, 235, 473-476) à des concentrations de raison 10 allant de 3 à 300 µM. Cette solution a été conservée sous parties aliquotes à -20°C avant utilisation. • Les contrôles de la réaction de Greiss sont composés de : • . Une solution de nitrate de sodium qui permet de contrôler l'activité nitrate-réductase des bactéries. • . Une gamme étalon de nitrite de sodium qui permet de doser les nitrites dans les échantillons. • Le blanc de DO de la gamme étalon contenant 100 µl d'eau distillée et 200 µl du mélange des réactifs A et B.

[1] = AVF1 1 x 10^-6 % (10 nM), IFNγ + LPS + L-NMMA (3 µM)
[2] = AVF1 1 x 10^-6 % (10 nM), IFNγ + LPS + L-NMMA (30 µM)
[3] = AVF1 1 x 10^-6 % (10 nM), IFNγ + LPS + L-NMMA (300 µM)
[4] = AVF1 1 x 10^-7 % (1 nM), IFNγ + LPS + L-NMMA (30 µM)
[5] = AVF1 1 x 10^-7 % (1 nM), IFNγ + LPS + L-NMMA (300 µM)
[6] = AVF1 1 x 10^-8 % (0,1 nM), IFNγ + LPS + L-NMMA (3 µM)
[7] = AVF1 1 x 10^-8 % (0,1 nM), IFNγ + LPS + L-NMMA (300 µM)

Question: `CC(C)(C)c1cc(C(=O)OCCOCCOCCOCCOCCOCCOCCOCCO)cc(C(C)(C)C)c1O` [AVF1, 3,5-di-t-butyl-4-hydroxybenzoate d'octaoxyéthylèneglycol] was tested. Which “Concentration moyenne en nitrites en µM sur 2 échantillons” value (AVF1 1 x 10^-6 % (10 nM), IFNγ + LPS) did it give?
Answer: Its value is 20,9 µM.

Question: What about the “Concentration moyenne en nitrites en µM sur 2 échantillons” value [1] of the same compound?
Answer: The value was 5,3 µM.

Question: What about the “Pourcentage d'inhibition de la production de nitrite” value [1] of the same compound?
Answer: Its value is 74%.

Question: And the “Concentration moyenne en nitrites en µM sur 2 échantillons” value [2]?
Answer: Its value is 6,3 µM.

Question: And the “Pourcentage d'inhibition de la production de nitrite” value [2]?
Answer: The value was 70%.

Question: What about the “Concentration moyenne en nitrites en µM sur 2 échantillons” value [3] of the same compound?
Answer: The value was 4,8 µM.

Question: And the “Pourcentage d'inhibition de la production de nitrite” value [3]?
Answer: The value was 77%.

Question: And the “Concentration moyenne en nitrites en µM sur 2 échantillons” value (AVF1 1 x 10^-6 % (10 nM), cells: Milieu (no activator))?
Answer: The value was 5,0* µM.

Question: And the “Concentration moyenne en nitrites en µM sur 2 échantillons” value (AVF1 1 x 10^-7 % (1 nM), IFNγ + LPS)?
Answer: The value was 19,5 µM.

Question: What about the “Concentration moyenne en nitrites en µM sur 2 échantillons” value (AVF1 1 x 10^-7 % (1 nM), IFNγ + LPS + L-NMMA (3 µM)) of the same compound?
Answer: Its value is 5,1 µM.

Question: And the “Concentration moyenne en nitrites en µM sur 2 échantillons” value [4]?
Answer: The value was 4,9 µM.

Question: And the “Pourcentage d'inhibition de la production de nitrite” value [4]?
Answer: Its value is 76%.

Question: What about the “Concentration moyenne en nitrites en µM sur 2 échantillons” value [5] of the same compound?
Answer: Its value is 5,8 µM.

Question: And the “Pourcentage d'inhibition de la production de nitrite” value [5]?
Answer: Its value is 72%.

Question: And the “Concentration moyenne en nitrites en µM sur 2 échantillons” value (AVF1 1 x 10^-7 % (1 nM), cells: Milieu (no activator))?
Answer: The value was 4,8* µM.

Question: What about the “Concentration moyenne en nitrites en µM sur 2 échantillons” value (AVF1 1 x 10^-8 % (0,1 nM), IFNγ + LPS) of the same compound?
Answer: Its value is 21,6 µM.

Question: And the “Concentration moyenne en nitrites en µM sur 2 échantillons” value [6]?
Answer: The value was 5,0 µM.

Question: What about the “Pourcentage d'inhibition de la production de nitrite” value [6] of the same compound?
Answer: Its value is 76%.

Question: And the “Concentration moyenne en nitrites en µM sur 2 échantillons” value (AVF1 1 x 10^-8 % (0,1 nM), IFNγ + LPS + L-NMMA (30 µM))?
Answer: Its value is 5,2 µM.

Question: And the “Concentration moyenne en nitrites en µM sur 2 échantillons” value [7]?
Answer: Its value is 5,5 µM.

Question: What about the “Pourcentage d'inhibition de la production de nitrite” value [7] of the same compound?
Answer: The value was 74%.

Question: And the “Concentration moyenne en nitrites en µM sur 2 échantillons” value (AVF1 1 x 10^-8 % (0,1 nM), cells: Milieu (no activator))?
Answer: Its value is 5,6* µM.

Question: And the “induction de monoxyde d'azote (NO) dans les macrophages” value (AVF1 from 10^-6 % downwards, non-activated macrophages, nitrites in supernatants)?
Answer: Its value is “n'induit pas de monoxyde d'azote (NO)”.

Question: What about the inhibition at 0.01 µM (Mus musculus, RAW264.7, AVF1 1 x 10^-6 % (10 nM), IFNγ + LPS, read-out: Pourcentage d'inhibition de la production de nitrite) of the same compound?
Answer: Its inhibition at 0.01 µM is 0%.

Question: What about the inhibition at 0.001 µM (Mus musculus, RAW264.7, AVF1 1 x 10^-7 % (1 nM), IFNγ + LPS, read-out: Pourcentage d'inhibition de la production de nitrite) of the same compound?
Answer: The inhibition at 0.001 µM was 6%.

Question: And the “action sur le niveau de production de NO” value (macrophages activated by LPS + IFN-γ)?
Answer: The value was “n'a aucune action sur le niveau de production”.
